According to patent US6664231B1, “Anti-fungal peptides” (priority 1993, dated 2003):

Tests used:
[1] = tested on: C. albicans (SLU-1 strain); assay: Survival of mice systemically infected with Candida albicans; assay type: in vivo, mouse
Method: Groups of 15 male DBA/2J mice at age 6-8 weeks (Jackson Laboratory, Bar Harbor, Me.) were inoculated with 1.24×10^5 C. albicans (SLU-1 strain as described in Example 2) by intravenous injection into the tail vein. Cells were prepared for animal injection as follows. A single colony was selected and used to inoculate a 5 mL tube of Sabouraud dextrose broth. Incubation was at 30° C. with shaking to allow aeration for a period of 15-18 hours. Four mL of the overnight culture were added to 100 mL of fresh Sabouraud dextrose broth (1:25 dilution) and incubated for 4 hours. The 100 mL culture was pelleted at 1,500×g for 5 minutes. Cells were washed twice by adding 20 mL D-PBS, vortexing and re-centrifuging. Cells were collected in one tube and a sample is diluted 1:10 to be measured by OD570 (1 OD unit=3×10^7 CFU/mL). The cells were diluted to the desired dose in D-PBS and kept at 4° C. until used. Doses were confirmed by performing serial ten-fold dilutions and plating 50 μl per dilution on Sabouraud dextrose agar. Colonies were counted the following day after overnight incubation at 37° C. A […] culture yielded approximately 1×10^9 CFU/mL.
Immediately after fungal challenge, the mice were intravenously injected via the tail vein with a 0.1 mL volume of 10 mg/kg XMP.36, 5 mg/kg XMP.97, 10 mg/kg XMP.102, 1 mg/kg amphotericin B (Sigma, St. Louis, Mo.), or phosphate buffered saline (PBS) as a control. Treatment with the same amounts of peptides, amphotericin B or PBS was repeated at Day 2 and Day 4 (except that the second dose of XMP.36 was given at a dose of 5 mg/kg). Mice were monitored twice daily for mortality until termination of the study at Day 28. […] In FIG. 4, the symbol “X” represents survival after treatment with amphotericin B; open squares, treatment with XMP.97; open circles, treatment with XMP.36; open diamonds, treatment with XMP.102; and open triangles, treatment with buffer. Statistical significance was evaluated using the Lifetest Survival Curve analysis. [Lawless, Statistical Models and Methods for Lifetime Data, John Wiley & Sons, New York (1982).] The duration and almost linear decline in survival is analogous to human opportunistic candidiasis.
In additional 3-dose studies, groups of 15 mice were injected with a fungal challenge of 0.5×10^5 Candida cells, prepared for injection as described above, followed by treatment at Day 0, Day 2 and Day 5 with a 0.1 mL volume of 10 mg/kg XMP.127, 5 mg/kg XMP.13, 5 mg/kg XMP.37, 1 mg/kg amphotericin B, or PBS as a control. […] In FIG. 5, the symbol “X” represents survival after treatment with amphotericin B; open circles, treatment with XMP.127; filled triangles, treatment with buffer; open squares, treatment with XMP.37; open triangles, treatment with XMP.13.
Further studies to determine the effectiveness of anti-fungal peptides were performed at an increased dosing regimen (6 doses rather than 3 doses as described above). Groups of 9 week-old male DBA/2J mice were inoculated with concentrations of 2.7×10^5 Candida cells (prepared as described above) by intravenous injection in the tail vein. Immediately after fungal challenge, the mice were treated with a 0.1 mL volume of 10 mg/kg XMP.284, 1 mg/kg amphotericin B or PBS as a control at Day 0, Day 2, Day 4, Day 7, Day 9 and Day 11. All amphotericin B-treated animals were protected.
Additional 6-dose experiments were conducted as described above, using inocula of 0.5-3.0×10^5 Candida cells and using 0.01, 0.05, 0.1, 0.5, 1.0 or 5.0 mg/kg doses of peptide.

[2] = tested on: C. albicans (CA-1, Strain SLU-1); assay: Radial diffusion assay; assay type: cell-based, Candida albicans; details: pmoles of peptide added to well to achieve a 30 mm^2 zone, PROBIT analysis, crude or purified (P′) peptide
Method in brief: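 Peptides, serially diluted 2-fold in D-PBS (top ~1 mg/mL), diffused 3 h at 37° C into pH 7.4 phosphate-buffered agarose seeded with 1×10^6 CFU/mL yeast, before overnight growth under a 6% Sabouraud overlayer. Net inhibition zones measured after Coomassie staining; PROBIT fit of log pmol vs area gave pmol for 30 mm^2.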

[3] = 0.5×10^5 Candida cells, doses Day 0, 2, 5, 10 mg/kg XMP.127, 5 mg/kg XMP.13, 5 mg/kg XMP.37, 1 mg/kg amphotericin B, FIG. 5
[4] = 2.7×10^5 Candida cells, 10 mg/kg, 6 doses (Day 0, 2, 4, 7, 9, 11), FIG. 6

Molecule	mice survived until Day 28 [1, 3]	mice survived until Day 28 ([1]; 1.24×10^5 C. albicans i.v., 3 doses i.v. (Day 0, 2, 4), 10 mg/kg XMP.36, 5 mg/kg XMP.97, 10 mg/kg XMP.102, 1 mg/kg amphotericin B, FIG. 4)	protection of animals (6-dose study) ([1]; 2.7×10^5 Candida cells, 1 mg/kg, 6 doses)	C. albicans pmol/30 mm^2 zone [2]	C. albicans pmol/30 mm^2 zone ([2]; listed as XMP.13P′)	C. albicans pmol/30 mm^2 zone ([2]; listed as XMP.284P′)	survival at Day 6 [1, 4]	survival at Day 24 [1, 4]
C[C@@H]1[C@H](O)[C@@H](C)/C=C/C=C/C=C/C=C/C=C/C=C/C=C/[C@H](O[C@@H]2O[C@H](C)[C@@H](O)[C@H](N)[C@@H]2O)C[C@@H]2O[C@](O)(C[C@@H](O)C[C@@H](O)[C@H](O)CC[C@@H](O)C[C@@H](O)CC(=O)O[C@H]1C)C[C@H](O)[C@H]2C(=O)O [Amphotericin B, amphotericin B, reference compound]	100%	100%	protected					
H-KSKVGWAIQLFHKK-NH2 [XMP.37]	33%			253 pmol/30 mm^2 zone				
H-KSKVGWLIQLFHKK-NH2 [XMP.13]	20%			541 pmol/30 mm^2 zone	222 pmol/30 mm^2 zone			
H-SKVKWLIQLFHKK-NH2 [XMP.284]				1,460 pmol/30 mm^2 zone		373 pmol/30 mm^2 zone	87%	33%
